{"source": "PubChem BioAssay AID1626", "about": "(SRMLSC, 2009)", "system": "M. tuberculosis H37Rv growth inhibition", "experiment": "M. tuberculosis H37Rv growth inhibitors, H37Rv strain (AID 1626)", "conditions": "for IC90: measured here: IC90 against H37Rv; for CC50: measured here: Vero cell cytotoxicity", "data": [{"smiles": "OC1(C#Cc2c(-c3ccsc3)oc3ccc(N4CCOCC4)cc23)CCCCC1", "values": [{"measurement": "IC50", "result": 15, "unit": "µM"}, {"measurement": "IC90", "result": "> 100", "unit": "µM"}, {"measurement": "CC50", "result": "> 40", "unit": "µM"}]}, {"smiles": "Cc1ccc(CNc2nc(-c3cccs3)nc3ccccc23)cc1", "values": [{"measurement": "IC50", "result": 9.84, "unit": "µM"}, {"measurement": "IC90", "result": 18.7, "unit": "µM"}, {"measurement": "CC50", "result": "> 40", "unit": "µM"}]}, {"smiles": "O=C(CCl)NC1CCCc2ccccc21", "note": "(centres undefined)", "values": [{"measurement": "IC50", "result": 20.6, "unit": "µM"}, {"measurement": "IC90", "result": "> 100", "unit": "µM"}, {"measurement": "CC50", "result": 32.5, "unit": "µM"}]}, {"smiles": "c1ccc(N2CCN(c3nc(NCc4ccco4)c4ccccc4n3)CC2)cc1", "values": [{"measurement": "IC50", "result": 9.66, "unit": "µM"}, {"measurement": "IC90", "result": 14.4, "unit": "µM"}, {"measurement": "CC50", "result": "> 40", "unit": "µM"}]}, {"smiles": "Cc1ccc(CN2CCSc3ccc(C(=O)NC4CCN(Cc5ccccc5)CC4)cc32)cc1", "values": [{"measurement": "CC50", "result": 18.4, "unit": "µM"}]}, {"smiles": "O=C(Nc1nnc(-c2ccc(F)cc2)o1)c1cc(Cl)sc1Cl", "values": [{"measurement": "IC50", "result": "< 0.195", "unit": "µM"}, {"measurement": "IC90", "result": 2.86, "unit": "µM"}, {"measurement": "CC50", "result": 18.2, "unit": "µM"}]}, {"smiles": "O=C(Nc1ccc(-n2nncc2-c2ccco2)cc1)c1cc2ccccc2oc1=O", "values": [{"measurement": "IC50", "result": 1.96, "unit": "µM"}, {"measurement": "IC90", "result": 6.68, "unit": "µM"}, {"measurement": "CC50", "result": 19.7, "unit": "µM"}]}, {"smiles": "O=C(c1cc(COc2ccc(F)cc2Cl)on1)N1CCC(OCc2cccnc2)CC1", "values": [{"measurement": "IC90", "result": "> 100", "unit": "µM"}, {"measurement": "CC50", "result": 8.01, "unit": "µM"}]}, {"smiles": "CCOC(=O)c1cnc(-n2nc(C)cc2C)nc1Nc1ccc(OC)cc1", "values": [{"measurement": "IC50", "result": 0.641, "unit": "µM"}, {"measurement": "IC90", "result": 1.27, "unit": "µM"}]}, {"smiles": "CC(=O)c1ccc(NC(=O)c2cc(CC(C)C)on2)cc1", "values": [{"measurement": "IC50", "result": 7.21, "unit": "µM"}, {"measurement": "IC90", "result": 42.9, "unit": "µM"}]}, {"smiles": "O=C(c1ccccc1)N1CCN(c2ccc([N+](=O)[O-])cc2-n2cccc2)CC1", "values": [{"measurement": "IC50", "result": 4.17, "unit": "µM"}, {"measurement": "IC90", "result": 7.26, "unit": "µM"}, {"measurement": "CC50", "result": "> 40", "unit": "µM"}]}, {"smiles": "COc1ccc2cc(C(=O)C3CCCN(Cc4cccc(C)n4)C3)ccc2c1", "note": "(centres undefined)", "values": [{"measurement": "IC50", "result": 7, "unit": "µM"}, {"measurement": "IC90", "result": 14.7, "unit": "µM"}, {"measurement": "CC50", "result": "> 40", "unit": "µM"}]}, {"smiles": "CN(C)CCCn1c(=O)n(CCc2ccccc2)c(=O)c2c3c(sc21)CCCCC3", "values": [{"measurement": "IC50", "result": 11.6, "unit": "µM"}, {"measurement": "IC90", "result": 12.9, "unit": "µM"}, {"measurement": "CC50", "result": 18.1, "unit": "µM"}]}, {"smiles": "CCC(=O)Nc1nc2ccccc2n1Cc1ccc(Cl)cc1", "values": [{"measurement": "IC50", "result": "< 0.195", "unit": "µM"}, {"measurement": "IC90", "result": "> 100", "unit": "µM"}, {"measurement": "CC50", "result": "> 40", "unit": "µM"}]}, {"smiles": "COc1ccccc1/C=C/C(=O)Oc1cccc2cccnc12", "values": [{"measurement": "IC50", "result": 2.8, "unit": "µM"}, {"measurement": "IC90", "result": 3.05, "unit": "µM"}, {"measurement": "CC50", "result": 37.9, "unit": "µM"}]}, {"smiles": "Cc1ccc(C(C(=O)Nc2ccc3c(c2)OCO3)N(C)C(=O)/C=C\\c2ccc3c(c2)OCO3)cc1", "note": "(centres undefined)", "values": [{"measurement": "IC50", "result": 45.5, "unit": "µM"}, {"measurement": "IC90", "result": "> 100", "unit": "µM"}]}, {"smiles": "O=C(/C=C/c1cn(CC(O)CN2CCCCC2)c2ccccc12)c1ccccc1", "note": "(centres undefined)", "values": [{"measurement": "IC50", "result": 2.94, "unit": "µM"}, {"measurement": "IC90", "result": 3.34, "unit": "µM"}, {"measurement": "CC50", "result": 29.5, "unit": "µM"}]}, {"smiles": "CCOC(=O)Cn1nnc(-c2ccc(OCC(C)C)cc2)n1", "values": [{"measurement": "IC50", "result": 16.6, "unit": "µM"}, {"measurement": "IC90", "result": "> 100", "unit": "µM"}]}, {"smiles": "Cc1ccc(Nc2cc(C)nn2-c2nc(C)cc(C)n2)cc1", "values": [{"measurement": "IC50", "result": "< 0.195", "unit": "µM"}, {"measurement": "IC90", "result": 56.1, "unit": "µM"}, {"measurement": "CC50", "result": 13.5, "unit": "µM"}]}, {"smiles": "CCOC(=O)CSc1ccc(-c2nc3ccccc3[nH]2)cn1", "values": [{"measurement": "IC50", "result": 2.98, "unit": "µM"}, {"measurement": "IC90", "result": 5.54, "unit": "µM"}, {"measurement": "CC50", "result": "> 40", "unit": "µM"}]}, {"smiles": "CC1CCN(C(=O)COC(=O)c2cc3ccccc3cc2O)CC1", "values": [{"measurement": "IC50", "result": 0.634, "unit": "µM"}, {"measurement": "IC90", "result": 2.51, "unit": "µM"}]}, {"smiles": "Nc1ccc2c(c1)Cc1ccccc1-2", "values": [{"measurement": "IC50", "result": 18.3, "unit": "µM"}, {"measurement": "IC90", "result": "> 100", "unit": "µM"}]}, {"smiles": "O=C(/C=C/c1ccc([N+](=O)[O-])s1)N1CCCCC1", "values": [{"measurement": "IC50", "result": 6.4, "unit": "µM"}, {"measurement": "IC90", "result": 10.6, "unit": "µM"}, {"measurement": "CC50", "result": "> 40", "unit": "µM"}]}, {"smiles": "O=C(/C=C/c1ccccc1)/C=C/c1ccccc1", "values": [{"measurement": "IC50", "result": 5.86, "unit": "µM"}, {"measurement": "IC90", "result": 6.68, "unit": "µM"}, {"measurement": "CC50", "result": 31.2, "unit": "µM"}]}, {"smiles": "COc1ccc(N=c2cc(-c3ccc(O)cc3)oc3ccccc23)cc1", "values": [{"measurement": "IC50", "result": 5.8, "unit": "µM"}, {"measurement": "IC90", "result": 9.5, "unit": "µM"}, {"measurement": "CC50", "result": 34.3, "unit": "µM"}]}, {"smiles": "O=C(Nc1nc(-c2ccccn2)cs1)C12CC3CC(CC(O)(C3)C1)C2", "values": [{"measurement": "IC50", "result": 3.6, "unit": "µM"}, {"measurement": "IC90", "result": 7.8, "unit": "µM"}, {"measurement": "CC50", "result": "> 40", "unit": "µM"}]}, {"smiles": "CC(=O)Nc1nc2ccccc2n1Cc1ccccc1C", "values": [{"measurement": "IC50", "result": 0.2, "unit": "µM"}, {"measurement": "IC90", "result": 81, "unit": "µM"}, {"measurement": "CC50", "result": 22.5, "unit": "µM"}]}, {"smiles": "CCCCn1c(O)c(C(CC)=Nc2ccc(OCC)cc2)c(=O)[nH]c1=O", "values": [{"measurement": "IC50", "result": 7.89, "unit": "µM"}, {"measurement": "IC90", "result": "> 100", "unit": "µM"}, {"measurement": "CC50", "result": "> 40", "unit": "µM"}]}, {"smiles": "COc1cc(C)c(/C=C/C(C)=C/C=C/C(C)=C/C(=O)O)c(C)c1C", "values": [{"measurement": "IC50", "result": 0.488, "unit": "µM"}, {"measurement": "IC90", "result": "> 100", "unit": "µM"}, {"measurement": "CC50", "result": "> 40", "unit": "µM"}]}, {"smiles": "O=C(Nc1nnc(-c2cccs2)o1)c1cccc(Oc2ccccc2)c1", "values": [{"measurement": "IC50", "result": "< 0.195", "unit": "µM"}, {"measurement": "IC90", "result": 2.67, "unit": "µM"}, {"measurement": "CC50", "result": 34, "unit": "µM"}]}, {"smiles": "CCCc1ccc(-c2cc(C(=O)NC3=NCCS3)c3ccccc3n2)cc1", "values": [{"measurement": "IC90", "result": "> 100", "unit": "µM"}, {"measurement": "CC50", "result": "> 40", "unit": "µM"}]}, {"smiles": "CCCCn1c(=O)c(C(=O)Nc2cnccn2)c(O)c2ccccc21", "values": [{"measurement": "IC50", "result": 5.79, "unit": "µM"}, {"measurement": "IC90", "result": 6.45, "unit": "µM"}, {"measurement": "CC50", "result": 18.2, "unit": "µM"}]}, {"smiles": "CCOC(=O)c1ccc(NC(=O)CSc2ccc(-c3cccnc3)nn2)cc1", "values": [{"measurement": "IC50", "result": 29.1, "unit": "µM"}, {"measurement": "IC90", "result": "> 100", "unit": "µM"}, {"measurement": "CC50", "result": "> 40", "unit": "µM"}]}, {"smiles": "CCCCn1c(O)c(C(=O)/C=C/c2ccc3c(c2)OCO3)c(=O)[nH]c1=O", "values": [{"measurement": "IC50", "result": 4.53, "unit": "µM"}, {"measurement": "IC90", "result": 7.66, "unit": "µM"}, {"measurement": "CC50", "result": "> 40", "unit": "µM"}]}, {"smiles": "C#CCOCCOCCOCCNc1nc(N2CCN(C(=O)[C@H](Cc3ccc(O)cc3)n3cc([C@@H](N)CC(C)C)nn3)CC2)nc(N2CCN(C(=O)[C@H](Cc3cc4ccccc4[nH]3)n3cc([C@@H](N)CC(C)C)nn3)CC2)n1", "values": [{"measurement": "IC50", "result": 11.7, "unit": "µM"}, {"measurement": "IC90", "result": 16.7, "unit": "µM"}]}, {"smiles": "CCCCc1nc2sc3c(SCCN(C)C)ncnc3c2c2c1CCC2", "values": [{"measurement": "IC50", "result": 12.8, "unit": "µM"}, {"measurement": "IC90", "result": 25.4, "unit": "µM"}, {"measurement": "CC50", "result": "> 40", "unit": "µM"}]}, {"smiles": "O=C(CCl)N(c1ccccc1)c1c[nH]c2ccccc12", "values": [{"measurement": "IC50", "result": 3.84, "unit": "µM"}, {"measurement": "IC90", "result": 8.14, "unit": "µM"}, {"measurement": "CC50", "result": 0.995, "unit": "µM"}]}, {"smiles": "CCCOC(=O)c1ccc(NC(=O)COC)cc1", "values": [{"measurement": "IC50", "result": 11.9, "unit": "µM"}, {"measurement": "IC90", "result": "> 100", "unit": "µM"}]}, {"smiles": "COc1ccc(-c2nnc(SC(C(=O)c3c[nH]c4ccccc34)c3ccccc3)n2N)cc1OC", "note": "(centres undefined)", "values": [{"measurement": "IC90", "result": "> 100", "unit": "µM"}, {"measurement": "CC50", "result": "> 40", "unit": "µM"}]}]}
